Among the data in US9150577B2, “Heterocyclic compounds containing an indole core” (Boehringer Ingelheim International GmbH, priority 2009, dated 2015) are IC50 values, retold here.

The structures appear in SMILES notation.

Broadly, the IC50 is the point on the concentration scale where inhibition reaches its midpoint.

This test has as its target Human RSK2 (Homo sapiens (Human), UniProt P51812). Briefly: Human RSK2 assay (Kinase Glo Plus, residual ATP).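 Also: recombinant human RSK2 phosphorylating a substrate peptide, 90 min at 28 °C, leftover ATP read by luminescence, RLU scaled between no-kinase background and uninhibited kinase controls, 4-parameter fit.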 In kind it is biochemical.

Chain of Human RSK2 (P51812 whole entry): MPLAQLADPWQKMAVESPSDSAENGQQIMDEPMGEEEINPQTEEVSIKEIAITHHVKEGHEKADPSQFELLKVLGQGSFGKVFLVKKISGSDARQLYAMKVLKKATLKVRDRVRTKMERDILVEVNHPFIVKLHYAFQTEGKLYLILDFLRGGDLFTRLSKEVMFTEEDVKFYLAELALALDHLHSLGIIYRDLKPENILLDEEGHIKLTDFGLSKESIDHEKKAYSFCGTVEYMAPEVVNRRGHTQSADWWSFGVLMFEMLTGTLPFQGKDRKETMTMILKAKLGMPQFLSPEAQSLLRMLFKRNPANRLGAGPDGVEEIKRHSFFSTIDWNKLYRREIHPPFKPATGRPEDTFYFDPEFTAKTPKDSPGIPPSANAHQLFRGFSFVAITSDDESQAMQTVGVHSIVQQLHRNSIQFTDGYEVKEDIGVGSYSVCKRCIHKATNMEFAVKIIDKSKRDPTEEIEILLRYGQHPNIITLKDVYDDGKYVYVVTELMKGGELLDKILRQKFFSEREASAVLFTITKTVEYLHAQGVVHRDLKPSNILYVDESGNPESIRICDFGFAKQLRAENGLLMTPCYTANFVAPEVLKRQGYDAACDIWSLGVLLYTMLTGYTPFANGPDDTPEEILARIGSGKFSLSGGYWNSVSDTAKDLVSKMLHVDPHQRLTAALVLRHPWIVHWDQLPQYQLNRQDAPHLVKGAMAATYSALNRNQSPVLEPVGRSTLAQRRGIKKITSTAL

For `CN(C)CCCn1c(NC(=O)c2ccc3cc4n(c3c2)CC2(CCOCC2)CNC4=O)nc2ccccc21` [Example 95, N-{1-[3-(dimethylamino)propyl]-1H-benzimidazol-2-yl}-1-oxo-2,2′,3,3′,5′,6′-hexahydro-1H-spiro[1,4-diazepino[1,2-a]indole-4,4′-pyran]-8-carboxamide], the IC50 was found to be 0.016 µM. Take `CC1(C)CNC(=O)c2cc3ccc(C(=O)Nc4nc5ccccc5[nH]4)cc3n21` [Example 56, N-(1H-benzimidazol-2-yl)-4,4-dimethyl-1-oxo-1,2,3,4-tetrahydropyrazino[1,2-a]indole-7-carboxamide]: the IC50 amounted to 0.00089 µM. As for `CC(C)c1cccc(NC(=O)c2ccc3cc4n(c3c2)CCCNC4=O)c1` [Example 145, 1-oxo-N-[3-(propan-2-yl)phenyl]-2,3,4,5-tetrahydro-1H-[1,4]diazepino[1,2-a]indole-8-carboxamide], the 50% inhibitory concentration (IC50) was determined as 0.14 µM. The result for `O=C(Nc1cn[nH]c1)c1ccc2cc3n(c2c1)CCCNC3=O` [Example 15, 1-oxo-N-(1H-pyrazol-4-yl)-2,3,4,5-tetrahydro-1H-[1,4]diazepino[1,2-a]indole-8-carboxamide] reads 0.043 µM.

Consider `CCn1c(NC(=O)c2ccc3cc4n(c3c2)C(C)(C)CNC4=O)nc2ccccc21` [Example 82, N-(1-ethyl-1H-benzimidazol-2-yl)-4,4-dimethyl-1-oxo-1,2,3,4-tetrahydropyrazino[1,2-a]indole-7-carboxamide], for which the IC50 came to 0.00025 µM.

On to `CCn1c(NC(=O)c2ccc3cc4n(c3c2)C(C)CCNC4=O)nc2ccccc21` (stereo not shown) [Example 166, N-(1-ethyl-1H-benzimidazol-2-yl)-5-methyl-1-oxo-2,3,4,5-tetrahydro-1H-[1,4]diazepino[1,2-a]indole-8-carboxamide], for which the IC50 was determined as 0.0006 µM. As to `O=C(Nc1cccnc1)c1ccc2cc3n(c2c1)CC1(CCC1)CNC3=O` [Example 153, 1′-oxo-N-(pyridin-3-yl)-2′,3′-dihydro-1′H-spiro[cyclobutane-1,4′-[1,4]diazepino[1,2-a]indole]-8′-carboxamide], the IC50 turned out to be 3.3 µM. The result for `Cn1cc(NC(=O)c2ccc3cc4n(c3c2)CC(C)(C)CNC4=O)cn1` [Example 163, 4,4-dimethyl-N-(1-methyl-1H-pyrazol-4-yl)-1-oxo-2,3,4,5-tetrahydro-1H-[1,4]diazepino[1,2-a]indole-8-carboxamide] reads 0.335 µM; that for `Cn1cc(NC(=O)c2ccc3cc4n(c3c2)CC2(CCC2)CNC4=O)cn1` [Example 24, N-(1-methyl-1H-pyrazol-4-yl)-1′-oxo-2′,3′-dihydro-1′H-spiro[cyclobutane-1,4′-[1,4]diazepino[1,2-a]indole]-8′-carboxamide], 0.32 µM. Regarding `CC(C)n1c(NC(=O)c2ccc3cc4n(c3c2)C(C)(C)CNC4=O)nc2ccccc21` [Example 73, 4,4-dimethyl-1-oxo-N-[1-(propan-2-yl)-1H-benzimidazol-2-yl]-1,2,3,4-tetrahydropyrazino[1,2-a]indole-7-carboxamide], the IC50 came to 0.002 µM. `Cc1cc(NC(=O)c2ccc3cc4n(c3c2)[C@H](C)CNC4=O)no1` [Example 128, (4R)-4-methyl-N-(5-methyl-1,2-oxazol-3-yl)-1-oxo-1,2,3,4-tetrahydropyrazino[1,2-a]indole-7-carboxamide]: the IC50 worked out at 0.0066 µM.

In the case of `Cn1cc(NC(=O)c2ccc3cc4n(c3c2)CCCNC4=O)nc1C(=O)NC1CCCC1` [Example 232, N-[2-(cyclopentylcarbamoyl)-1-methyl-1H-imidazol-4-yl]-1-oxo-2,3,4,5-tetrahydro-1H-[1,4]diazepino[1,2-a]indole-8-carboxamide], the IC50 came out at 0.009 µM. The result for `Cc1cc(NC(=O)c2ccc3cc4n(c3c2)CC(F)(F)CNC4=O)no1` [Example 167, 4,4-difluoro-N-(5-methyl-1,2-oxazol-3-yl)-1-oxo-2,3,4,5-tetrahydro-1H-[1,4]diazepino[1,2-a]indole-8-carboxamide] reads 0.67 µM. As for `C[C@H]1NC(=O)c2cc3ccc(C(=O)Nc4cnn(Cc5ccccc5)c4)cc3n2[C@H]1C` (relative stereo) [Example 29, N-(1-benzyl-1H-pyrazol-4-yl)-cis-3,4-dimethyl-1-oxo-1,2,3,4-tetrahydropyrazino[1,2-a]indole-7-carboxamide], the IC50 turned out to be 0.0019 µM. The result for `COc1ccnc(NC(=O)c2ccc3cc4n(c3c2)CCCNC4=O)c1` [Example 206, N-(4-methoxypyridin-2-yl)-1-oxo-2,3,4,5-tetrahydro-1H-[1,4]diazepino[1,2-a]indole-8-carboxamide] reads 0.096 µM; that for `Cn1cc(NC(=O)c2ccc3cc4n(c3c2)C(C)(C)CNC4=O)nc1C(=O)NC1CCCC1` [Example 233, N-[2-(cyclopentylcarbamoyl)-1-methyl-1H-imidazol-4-yl]-4,4-dimethyl-1-oxo-1,2,3,4-tetrahydropyrazino[1,2-a]indole-7-carboxamide], 0.0037 µM; that for `O=C(Nc1ccncc1)c1ccc2cc3n(c2c1)CCCNC3=O` [Example 156, 1-oxo-N-(pyridin-4-yl)-2,3,4,5-tetrahydro-1H-[1,4]diazepino[1,2-a]indole-8-carboxamide], 0.039 µM.

As for `O=C(Nc1ccn(-c2ccccc2)n1)c1ccc2cc3n(c2c1)CCCNC3=O` [Example 14, 1-oxo-N-(1-phenyl-1H-pyrazol-3-yl)-2,3,4,5-tetrahydro-1H-[1,4]diazepino[1,2-a]indole-8-carboxamide], the IC50 is 0.108 µM.

For `O=C(Nc1nnc(Cc2ccccc2)s1)c1ccc2cc3n(c2c1)CCCNC3=O` [Example 117, N-(5-benzyl-1,3,4-thiadiazol-2-yl)-1-oxo-2,3,4,5-tetrahydro-1H-[1,4]diazepino[1,2-a]indole-8-carboxamide], the half-inhibitory concentration (IC50) is 0.098 µM. The result for `COc1cc(NC(=O)c2ccc3cc4n(c3c2)CCCNC4=O)ccn1` [Example 204, N-(2-methoxypyridin-4-yl)-1-oxo-2,3,4,5-tetrahydro-1H-[1,4]diazepino[1,2-a]indole-8-carboxamide] reads 0.017 µM; that for `CN(C)CCCn1c(NC(=O)c2ccc3cc4n(c3c2)CC2(CCNCC2)CNC4=O)nc2ccccc21` [Example 236, N-{1-[3-(dimethylamino)propyl]-1H-benzimidazol-2-yl}-1-oxo-2,3-dihydro-1H-spiro[1,4-diazepino[1,2-a]indole-4,4′-piperidine]-8-carboxamide], 0.54 µM. The result for `CC(C)n1c(NC(=O)c2ccc3cc4n(c3c2)[C@@H](C)CNC4=O)nc2ccccc21` [Example 69, (4S)-4-methyl-1-oxo-N-[1-(propan-2-yl)-1H-benzimidazol-2-yl]-1,2,3,4-tetrahydropyrazino[1,2-a]indole-7-carboxamide] reads 0.021 µM.

With `CC(C)n1cc(NC(=O)c2ccc3cc4n(c3c2)CCCNC4=O)cn1` [Example 25, 1-oxo-N-[1-(propan-2-yl)-1H-pyrazol-4-yl]-2,3,4,5-tetrahydro-1H-[1,4]diazepino[1,2-a]indole-8-carboxamide], the IC50 stood at 0.014 µM. With `O=C(Nc1cccc(-c2cc[nH]n2)c1)c1ccc2cc3n(c2c1)CCCNC3=O` [Example 227, 1-oxo-N-[3-(1H-pyrazol-3-yl)phenyl]-2,3,4,5-tetrahydro-1H-[1,4]diazepino[1,2-a]indole-8-carboxamide], the IC50 is 0.041 µM.

`O=C(Nc1cc(C2CC2)on1)c1ccc2cc3n(c2c1)CCCNC3=O` [Example 183, N-(5-cyclopropyl-1,2-oxazol-3-yl)-1-oxo-2,3,4,5-tetrahydro-1H-[1,4]diazepino[1,2-a]indole-8-carboxamide]: the IC50 came out at 0.026 µM.

In the case of `CC1(C)CNC(=O)c2cc3ccc(C(=O)Nc4cnn(Cc5ccccc5)c4)cc3n2C1` [Example 122, N-(1-benzyl-1H-pyrazol-4-yl)-4,4-dimethyl-1-oxo-2,3,4,5-tetrahydro-1H-[1,4]diazepino[1,2-a]indole-8-carboxamide], the IC50 was determined as 0.11 µM. With `Cn1c(NC(=O)c2ccc3cc4n(c3c2)C(C)(C)CNC4=O)nc2ccccc21` [Example 59, 4,4-dimethyl-N-(1-methyl-1H-benzimidazol-2-yl)-1-oxo-1,2,3,4-tetrahydropyrazino[1,2-a]indole-7-carboxamide], the IC50 was found to be 0.00062 µM.

Turning to `C[C@@H]1NC(=O)c2cc3ccc(C(=O)Nc4cccnc4)cc3n2[C@H]1C` (relative stereo) [Example 180, Trans-3,4-dimethyl-1-oxo-N-(pyridin-3-yl)-1,2,3,4-tetrahydropyrazino[1,2-a]indole-7-carboxamide], the IC50 came to 0.895 µM. The result for `CCn1c(NC(=O)c2ccc3cc4n(c3c2)C(C)CNC4=O)nc2ccccc21` (stereo not shown) [Example 83, N-(1-ethyl-1H-benzimidazol-2-yl)-4-methyl-1-oxo-1,2,3,4-tetrahydropyrazino[1,2-a]indole-7-carboxamide] reads 0.00063 µM; that for `CCCc1cc(NC(=O)c2ccc3cc4n(c3c2)CCCNC4=O)on1` [Example 202, 1-oxo-N-(3-propyl-1,2-oxazol-5-yl)-2,3,4,5-tetrahydro-1H-[1,4]diazepino[1,2-a]indole-8-carboxamide], 0.016 µM; that for `Cc1cc(NC(=O)c2ccc3cc4n(c3c2)CC(C)CNC4=O)no1` (stereo not shown) [Example 182, 4-methyl-N-(5-methyl-1,2-oxazol-3-yl)-1-oxo-2,3,4,5-tetrahydro-1H-[1,4]diazepino[1,2-a]indole-8-carboxamide], 0.15 µM. The same measure for `O=C(Nc1nc2ccccc2n1CCc1ccccn1)c1ccc2cc3n(c2c1)CCCNC3=O` [Example 89, 1-oxo-N-{1-[2-(pyridin-2-yl)ethyl]-1H-benzimidazol-2-yl}-2,3,4,5-tetrahydro-1H-[1,4]diazepino[1,2-a]indole-8-carboxamide]: 0.022 µM; for `O=C(Nc1ccccc1Cl)c1ccc2cc3n(c2c1)CCCNC3=O` [Example 216, N-(2-chlorophenyl)-1-oxo-2,3,4,5-tetrahydro-1H-[1,4]diazepino[1,2-a]indole-8-carboxamide]: 6 µM; for `Cc1cc(NC(=O)c2ccc3cc4n(c3c2)CC2(CCNCC2)CNC4=O)no1` [Example 237, N-(5-methyl-1,2-oxazol-3-yl)-1-oxo-2,3-dihydro-1H-spiro[1,4-diazepino[1,2-a]indole-4,4′-piperidine]-8-carboxamide]: 6.3 µM.
